Assay results published in patent US20080262010A1, “CRYSTALLINE POLYMORPHS OF N-(3-(DIMETHYLAMINO)PROPYL)-4-(4-(3-FLUORO-4-METHOXYPHENYL) PYRIMIDIN-2-YLAMINO) BENZENESULFONAMIDE AS D-GLUCORONATE SALTS” (Wyeth, priority 2007, published 2008).
Where a name gives a salt, the structure may show the parent alone.

What was measured:
[1] = Water solubility of compound 3 free base and its salts; type: physicochemical; details: for solubility in water: free base, thermogravimetric method
From the text: HCl, phosphoric acid, tartaric acid, acetic acid, D-glucoronic acid and succinic acid were used to prepare pharmaceutically acceptable salts of compound 3.
Solid or crystalline forms or polymorphs of compounds having formula I can be achieved in the free base.

[2] = Solubility of the free base of compound 3 in solvents; type: physicochemical
Protocol: Typically, water solubilities of the compounds in the form of their respective free base, such as compound 3, are low to none. In an exemplary embodiment, the solubility of the free base form of compound 3 in THF, DMSO and DMF was high but the solubility in group 3 solvents, or water for example, was low. For example, acetone is needed to dissolve the free base at 50° C. […] HCl, phosphoric acid, tartaric acid, acetic acid, D-glucoronic acid and succinic acid were used to prepare pharmaceutically acceptable salts of compound 3.

SMILES	solubility ([1]; salts of compound 3)	water solubility ([1]; salts of compound 3)	solubility in water [1]	solubility in water ([1]; listed as free base 3)	solubility in THF, DMSO and DMF ([2]; THF, DMSO and DMF)	solubility in group 3 solvents, or water ([2]; group 3 solvents, or water)
COc1ccc(-c2ccnc(Nc3ccc(S(=O)(=O)NCCCN(C)C)cc3)n2)cc1F [D-glucoronate salt of compound 3]	5170 µg/mL	5.7 mg/mL				
COc1ccc(-c2ccnc(Nc3ccc(S(=O)(=O)NCCCN(C)C)cc3)n2)cc1F [compound 3, N-(3-(dimethylamino)propyl)-4-(4-(3-fluoro-4-methoxyphenyl)pyrimidin-2-ylamino)benzenesulfonamide]			little to no water solubility	not detectable	high	low
